US20080139546A1, “Tetrahydroquinoline, indoline, and related aniline derivatives of heterocycle-fused benzodioxan methylamines” (Wyeth, priority 2006, published 2008)

Experiments:
Human 5-HT1A Receptor [1] = target: T1, Human 5-HT1A Receptor (Homo sapiens, UniProt P08908); experiment: 8-OH-DPAT binding, human 5-HT1A receptor cell line (displacement of [3H]-OHDPAT, stably transfected CHO cells); conditions: [3H]-OHDPAT 1.5 nM, read-out: h5HT1A Affinity Ki (nM) (Example 17)
T1 construct: expressed in transfected cells; host or cells: CHO cells (Chinese hamster ovary), stably transfected
T1 sequence (P08908 1-422): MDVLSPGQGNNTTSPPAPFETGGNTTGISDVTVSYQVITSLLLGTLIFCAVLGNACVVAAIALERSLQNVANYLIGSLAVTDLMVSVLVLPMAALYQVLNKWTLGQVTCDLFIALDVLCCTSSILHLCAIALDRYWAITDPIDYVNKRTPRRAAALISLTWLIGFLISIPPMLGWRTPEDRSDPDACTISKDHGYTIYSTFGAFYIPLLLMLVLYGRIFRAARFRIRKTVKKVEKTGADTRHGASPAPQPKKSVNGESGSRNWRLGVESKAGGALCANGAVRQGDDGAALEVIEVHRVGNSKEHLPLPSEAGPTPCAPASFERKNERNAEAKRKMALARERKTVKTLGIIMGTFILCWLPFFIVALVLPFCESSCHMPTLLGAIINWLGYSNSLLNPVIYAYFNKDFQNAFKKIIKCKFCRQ
Protocol: Affinity for the serotonin 5-HT1A receptor was established by testing each compound's ability to displace [^3H]-OHDPAT (dipropylaminotetralin) from the 5-HT1A serotonin receptor following a modification of the procedure of Hall et al., J. Neurochem. 44:1685-1696 (1985). Stably transfected Chinese hamster ovary (CHO) cells were plated and grown in Dulbecco's Modified Eagle's Medium (DMEM) containing 10% heat inactivated fetal bovine serum (FBS) and non-essential amino acids. Cells were scraped off the plate, transferred to centrifuge tubes, and washed twice by centrifugation (2000 rpm for 10 minutes at 4° C.) in buffer (50 mM Tris, pH 7.5). The resulting pellets were aliquoted and stored at −80° C. On the day of assay, the cells were thawed on ice, and re-suspended in buffer. The binding assay was performed in a 96-well microtiter plate in a total volume of about 250 μL. Non-specific binding was determined in the presence of 10 μM 5-HT; the final radio ligand concentration was 1.5 nM. Following a 30 minute incubation at room temperature, the reaction was terminated by the addition of ice cold buffer and rapid filtration through a GF/B filter presoaked for 30 minutes in 0.5% polyethyleneimine (PEI). Compounds were initially tested in a single point assay to determine percent inhibition at 1 μM, 0.1 μM, and 0.01 μM. Subsequently, Ki values were determined for compounds defined to be active. Percent inhibition Ki was determined by RFComp (Lundon Software, Chagrin Falls, Ohio), with serotonin and 8-OH-DPAT as the reference compounds.
High affinity for the receptor is evidence of a compound's ability to directly modulate activity at the 5-HT1A receptor.

serotonin transporter = target: T2, serotonin transporter (Rattus norvegicus, UniProt P31652); experiment: 3H-paroxetine binding to rat frontal cortical membranes, affinity for the serotonin transporter; conditions: 3H-paroxetine 0.1 nM, male Sprague Dawley rat frontal cortical membranes; read-out: 5HT Uptake r5HT-T Ki (nM) (Example 18)
T2 construct: frontal cortical membranes prepared from male Sprague Dawley rats; from tissue; host or cells: rat frontal cortex membranes (male Sprague Dawley)
Protocol: A protocol similar to that used by Cheetham et al. (Neuropharmacol. 32:737-743, 1993) was used to determine the affinity of compounds for the serotonin transporter (i.e., by determining the relative ability of a compound to displace ^3H-paroxetine from male rat frontal cortical membranes). Briefly, frontal cortical membranes prepared from male Sprague Dawley rats were incubated with ^3H-paroxetine (0.1 nM) for 60 minutes at 25° C. All tubes also contained either vehicle, test compound (one to eight concentrations), or a saturating concentration of fluoxetine (10 μM) to define […]. All reactions were terminated by the addition of ice cold Tris buffer followed by rapid filtration using a Tom Tech filtration device to separate bound from free ^3H-paroxetine. Bound radioactivity was quantitated using a Wallac 1205 Beta Plate® counter. Nonlinear regression analysis was used to determine IC50 values which were converted to Ki values using the method of Cheng and Prusoff (Biochem. Pharmacol. 22: 3099-3108, 1973); […].
This affinity translates to the blockade of 5-HT uptake, i.e., the ability of a compound increase synaptic 5-HT levels and to act like an SSRI.

Human 5-HT Transporter = target: T3, Human 5-HT Transporter (Homo sapiens, UniProt P31645); experiment: Inhibition of 3H-5-HT uptake by Jar cells possessing the human 5-HT transporter; type: cell-based; conditions: Jar cells treated with staurosporine, read-out: 5HT Uptake h5HT-T IC50 (nM) (Example 20)
T3 construct: endogenous in cells; host or cells: Jar cells (human carcinoma cell line), treated with staurosporine
Protocol: [Staurosporine greatly increases the expression of the 5-HT-Transporter.] On the day of assay, vehicle, excess of fluoxetine, or test compound was added to various wells on the plate. ^3H-5-HT was then aliquoted into all wells and the samples were incubated at 37° C. for 5 minutes. The wells were then washed with ice cold 50 mM Tris HCl (pH 7.4) buffer and aspirated to remove free ^3H-5-HT. 25 μL 0.25 M NaOH was then added to each well to lyse the cells and 75 μL scintillation cocktail (Microscint™ 20) was added prior to quantitation on a Packard TopCount® machine. Tubes with vehicle represent total possible uptake, radioactivity counted in tubes with excess fluoxetine represent nonspecific binding/uptake and were subtracted from the total possible uptake to give total possible specific uptake. This nonspecific binding (usual low in number) was then subtracted from the counts obtained in wells with various test compounds (or different concentrations of a test compound) resulting in uptake in the presence of drug. Specific uptake was then expressed as a percent of control values and was analyzed using nonlinear regression analysis (Prizm) to determine IC50 values. If the compound was active in inhibiting 5-HT uptake, its counts will be close to that obtained with fluoxetine.
This blockade, in vivo, would be expected to result in an increase in extracellular 5-HT concentrations.

Human 5-HT1A Receptor [2] = target: T1, Human 5-HT1A Receptor; experiment: cAMP radioimmunoassay (RIA) in human 5-HT1A receptor cell line, inhibition of forskolin stimulated cAMP; type: cell-based; conditions: forskolin (1 μM) stimulated cAMP, stably transfected CHO cells; read-out: h5HT1A cAMP EC50 (nM) (Example 19)
Protocol: Certain effects of 5-HT (e.g., certain effects mediated by the interaction of 5-HT with the 5-HT1A receptor) are mediated by cAMP. To test the ability of compounds described herein to modulate cAMP, a radioimmunoassay (RIA) method was used. Briefly, stably transfected CHO cells were grown in DMEM containing 10% heat inactivated FBS and non-essential amino acids. The cells were plated at a density of 10^6 cells per well in a 96-well plate and incubated for 2 days in a CO2 incubator. On the second day, the medium was replaced with 0.1 ml Krebs and incubated 15 minutes at 37° C. The medium was then replaced with Krebs buffer containing 500 μM isobutylmethylxanthine (IBMX) and incubated for approximately 5 minutes at 37° C. Wells were treated with forskolin (1 μM final concentration) followed immediately by test compound (0.1 and 1 μM for the initial screen) and incubated for an additional 10 minutes at 37° C. The reaction was terminated by removal of the medium and the addition of 0.5 ml ice cold assay buffer (supplied in the RIA kit). Plates were stored at −20° C. prior to assessment of cAMP formation by RIA. The cAMP kit was obtained from Amersham (Piscataway, N.J.) and the RIA was performed as per the kit instructions. In the initial screen, percent inhibition of forskolin stimulated cAMP was measured. […] These compounds behaved as either full agonists or partial agonists. 5-HT, BMY 7378, buspirone, and 8-OH-DPAT were used as reference compounds.
All compounds tested inhibited the forskolin-stimulated increase in […].

T2 sequence (P31652 whole entry): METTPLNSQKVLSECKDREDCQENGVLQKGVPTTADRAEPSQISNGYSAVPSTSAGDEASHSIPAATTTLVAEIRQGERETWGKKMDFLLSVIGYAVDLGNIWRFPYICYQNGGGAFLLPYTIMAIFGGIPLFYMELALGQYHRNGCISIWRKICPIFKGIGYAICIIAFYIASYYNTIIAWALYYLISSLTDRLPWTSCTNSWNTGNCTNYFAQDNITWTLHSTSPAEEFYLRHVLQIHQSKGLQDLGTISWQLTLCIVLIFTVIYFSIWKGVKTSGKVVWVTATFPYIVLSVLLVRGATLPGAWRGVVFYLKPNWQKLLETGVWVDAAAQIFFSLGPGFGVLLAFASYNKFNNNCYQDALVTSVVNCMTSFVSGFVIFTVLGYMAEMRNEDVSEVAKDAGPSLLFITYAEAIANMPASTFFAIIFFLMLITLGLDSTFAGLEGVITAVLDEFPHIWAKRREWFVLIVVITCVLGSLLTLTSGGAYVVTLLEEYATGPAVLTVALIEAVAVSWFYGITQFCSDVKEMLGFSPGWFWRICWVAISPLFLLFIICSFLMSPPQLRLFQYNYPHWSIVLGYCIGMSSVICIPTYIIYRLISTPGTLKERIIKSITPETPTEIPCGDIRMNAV
T3 sequence (P31645 whole entry): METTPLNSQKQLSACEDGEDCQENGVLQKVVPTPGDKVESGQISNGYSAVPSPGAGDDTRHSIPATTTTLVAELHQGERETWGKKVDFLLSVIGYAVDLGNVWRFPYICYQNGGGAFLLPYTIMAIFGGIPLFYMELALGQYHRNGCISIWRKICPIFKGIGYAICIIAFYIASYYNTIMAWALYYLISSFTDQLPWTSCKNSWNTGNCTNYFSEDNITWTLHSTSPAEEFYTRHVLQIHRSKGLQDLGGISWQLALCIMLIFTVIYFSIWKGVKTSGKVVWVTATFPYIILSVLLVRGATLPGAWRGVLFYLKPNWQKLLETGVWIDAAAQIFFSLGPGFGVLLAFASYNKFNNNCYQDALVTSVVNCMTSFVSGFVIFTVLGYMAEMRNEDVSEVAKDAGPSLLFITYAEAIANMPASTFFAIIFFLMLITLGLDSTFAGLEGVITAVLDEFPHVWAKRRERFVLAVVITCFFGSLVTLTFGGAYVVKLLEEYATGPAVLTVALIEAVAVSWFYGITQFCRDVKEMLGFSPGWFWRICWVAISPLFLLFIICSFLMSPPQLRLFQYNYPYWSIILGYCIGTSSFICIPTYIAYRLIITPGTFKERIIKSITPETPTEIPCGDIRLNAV

Row | Ki (Human 5-HT1A Receptor [1]) [nM] | Ki (serotonin transporter) [nM] | IC50 (Human 5-HT Transporter) [nM] | EC50 (Human 5-HT1A Receptor [2]) [nM] | Structure (SMILES)
1 | 2.77 | 14.7 | 4710 | 1.43 | Cc1ccc2c3c(ccc2n1)OC[C@H](CNCCCN1CCOc2ccc(F)cc21)O3 [Example 11, 3-(6-fluoro-2,3-dihydro-4H-1,4-benzoxazin-4-yl)-N-{[(2S)-8-methyl-2,3-dihydro[1,4]dioxino[2,3-f]quinolin-2-yl]methyl}propan-1-amine]
2 | 2.58 | 40.8 |  | 0.77 | Cc1ccc2c3c(ccc2n1)OC[C@H](CNCCCN1CCOc2ccccc21)O3 [Example 6, 3-(2,3-dihydro-4H-1,4-benzoxazin-4-yl)-N-{[(2S)-8-methyl-2,3-dihydro[1,4]dioxino[2,3-f]quinolin-2-yl]methyl}propan-1-amine]
3 | 0.57 | 3.5 |  | 2.49 | Cc1ccc2c3c(ccc2n1)OC[C@H](CNCCCN(C)c1ccccc1Cl)O3 [Example 13, N-(2-chlorophenyl)-N-methyl-N′-{[(2S)-8-methyl-2,3-dihydro[1,4]dioxino[2,3-f]quinolin-2-yl]methyl}propane-1,3-diamine]
4 | 3.22 | 116 |  | 1.95 | Cc1ccc2c3c(ccc2n1)OC[C@H](CNCCCN1CCCc2cc(F)c(Cl)cc21)O3 [Example 10, 3-(7-chloro-6-fluoro-3,4-dihydroquinolin-1(2H)-yl)-N-{[(2S)-8-methyl-2,3-dihydro[1,4]dioxino[2,3-f]quinolin-2-yl]methyl}propan-1-amine]
5 | 3.73 | 12.3 | 77 | 1.63 | Cc1ccc2c3c(ccc2n1)OC[C@H](CNCCCN1CCCc2cc(F)c(F)cc21)O3 [Example 7, 3-(6,7-difluoro-3,4-dihydroquinolin-1(2H)-yl)-N-{[(2S)-8-methyl-2,3-dihydro[1,4]dioxino[2,3-f]quinolin-2-yl]methyl}propan-1-amine]
6 | 0.6 | 10.2 |  | 3.76 | Cc1ccc2c3c(ccc2n1)OC[C@H](CNCCCN1CCc2cc(F)ccc21)O3 [Example 2, 3-(5-fluoro-2,3-dihydro-1H-indol-1-yl)-N-{[(2S)-8-methyl-2,3-dihydro[1,4]dioxino[2,3-f]quinolin-2-yl]methyl}propan-1-amine]
7 | 0.79 | 36.2 |  | 3.06 | Cc1ccc2c3c(ccc2n1)OC[C@H](CNCCCN1CCCCc2ccccc21)O3 [Example 12, N-{[(2S)-8-methyl-2,3-dihydro[1,4]dioxino[2,3-f]quinolin-2-yl]methyl}-3-(2,3,4,5-tetrahydro-1H-1-benzazepin-1-yl)propan-1-amine]
8 | 0.35 | 2.8 | 107 | 1.88 | Cc1ccc2c3c(ccc2n1)OC[C@H](CNCCCN1CCc2ccc(F)cc21)O3 [Example 3, 3-(6-fluoro-2,3-dihydro-1H-indol-1-yl)-N-{[(2S)-8-methyl-2,3-dihydro[1,4]dioxino[2,3-f]quinolin-2-yl]methyl}propan-1-amine]
9 | 0.62 | 21.1 | 180 | 3.44 | Cc1ccc2c3c(ccc2n1)OC[C@H](CNCCCN1CCc2ccccc21)O3 [Example 5, 3-(2,3-dihydro-1H-indol-1-yl)-N-{[(2S)-8-methyl-2,3-dihydro[1,4]dioxino[2,3-f]quinolin-2-yl]methyl}propan-1-amine]
10 | 0.19 | 3.3 | 161 | 1.66 | Cc1ccc2c3c(ccc2n1)OC[C@H](CNCCCCN1CCc2ccc(F)cc21)O3 [Example 14, 4-(6-fluoro-2,3-dihydro-1H-indol-1-yl)-N-{[(2S)-8-methyl-2,3-dihydro[1,4]dioxino[2,3-f]quinolin-2-yl]methyl}butan-1-amine]
11 | 1.44 | 7.2 | 76.9 | 1.48 | Cc1ccc2c3c(ccc2n1)OC[C@H](CNCCCN1CCCc2cc(F)ccc21)O3 [Example 8, 3-(6-fluoro-3,4-dihydroquinolin-1(2H)-yl)-N-{[(2S)-8-methyl-2,3-dihydro[1,4]dioxino[2,3-f]quinolin-2-yl]methyl}propan-1-amine]
12 | 0.66 | 11.8 | 438 | 9.25 | Cc1ccc2c3c(ccc2n1)OC[C@H](CNCCCCN1CCCc2ccccc21)O3 [Example 15, 4-(3,4-dihydroquinolin-1(2H)-yl)-N-{[(2S)-8-methyl-2,3-dihydro[1,4]dioxino[2,3-f]quinolin-2-yl]methyl}butan-1-amine]
13 | 2.45 | 13 | 150 | 1.58 | Cc1ccc2c3c(ccc2n1)OC[C@H](CNCCCN1CCCc2ccccc21)O3 [Example 1, 3-(3,4-dihydroquinolin-1(2H)-yl)-N-{[(2S)-8-methyl-2,3-dihydro[1,4]dioxino[2,3-f]quinolin-2-yl]methyl}propan-1-amine]
14 | 1.41 | 27 |  | 1.18 | Cc1ccc2c3c(ccc2n1)OC[C@H](CNCCCN1CCCc2cc(F)cc(F)c21)O3 [Example 9, 3-(6,8-difluoro-3,4-dihydroquinolin-1(2H)-yl)-N-{[(2S)-8-methyl-2,3-dihydro[1,4]dioxino[2,3-f]quinolin-2-yl]methyl}propan-1-amine]
